ChEMBL document CHEMBL1201862, “PubChem BioAssay data set” (2004)
Active and inactive are the calls of the source.

Key:
[1] = Trypanosoma cruzi growth suppression in host cells – NIH3T3 host cells, beta-gal luminescence, confirmation (AID 2044); format: functional, cell-based;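 note: intracellular parasites grown in NIH/3T3 mouse fibroblasts as host cells; luminescent beta-galactosidase reporter signal from transgenic T. cruzi replicating inside host cells; inhibitors lower the luminescence signal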
[2] = MIN6 cell viability loss – mouse insulinoma, cytotoxicity control, dose response (AID 2122); format: functional;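 note: confirmatory high-throughput counterscreen run to flag cytotoxic compounds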
[3] = decrease of insulin promoter-GFP reporter – imaging, high-content screening, mouse beta cells (AID 1628); format: functional; details: MIN6
[4] = NIH3T3 cell viability loss – ATP luminescence, mouse fibroblasts, counter-screen, dose response (AID 2010); format: functional, cell-based;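 note: cells exposed to compound for about 90 hours before reading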
[5] = system: INS1; assay: INS-1E survival protection against cytokine death – cell-based, luminescence, retest, dose response (AID 449756); format: functional; details: Rattus norvegicus;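 note: cell death triggered by IL-1 beta plus TNF-alpha plus IFN-gamma mixture; protective hits raise ATP signal compared with cytokine alone wells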
[6] = HEK-293T viability loss, compound-treated – cell-based, uHTS hits, cytotoxicity control for B/T-cell NF-kB inhibitor project, dose response (AID 489019); format: functional;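 note: IC50 reflects cytotoxicity as loss of cell viability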
[7] = target: Multidrug resistance protein CDR2 (Candida albicans (strain SC5314 / ATCC MYA-2876) (Yeast), UniProt P78595); assay: blockers of Nile Red efflux by Candida CDR2 – S. cerevisiae AD1-8u, singleplex, Cherry Pick2 set, dose response (AID 623994); format: functional; details: read-out: EC50_MICROM
Multidrug resistance protein CDR2, sequence (P78595 whole entry): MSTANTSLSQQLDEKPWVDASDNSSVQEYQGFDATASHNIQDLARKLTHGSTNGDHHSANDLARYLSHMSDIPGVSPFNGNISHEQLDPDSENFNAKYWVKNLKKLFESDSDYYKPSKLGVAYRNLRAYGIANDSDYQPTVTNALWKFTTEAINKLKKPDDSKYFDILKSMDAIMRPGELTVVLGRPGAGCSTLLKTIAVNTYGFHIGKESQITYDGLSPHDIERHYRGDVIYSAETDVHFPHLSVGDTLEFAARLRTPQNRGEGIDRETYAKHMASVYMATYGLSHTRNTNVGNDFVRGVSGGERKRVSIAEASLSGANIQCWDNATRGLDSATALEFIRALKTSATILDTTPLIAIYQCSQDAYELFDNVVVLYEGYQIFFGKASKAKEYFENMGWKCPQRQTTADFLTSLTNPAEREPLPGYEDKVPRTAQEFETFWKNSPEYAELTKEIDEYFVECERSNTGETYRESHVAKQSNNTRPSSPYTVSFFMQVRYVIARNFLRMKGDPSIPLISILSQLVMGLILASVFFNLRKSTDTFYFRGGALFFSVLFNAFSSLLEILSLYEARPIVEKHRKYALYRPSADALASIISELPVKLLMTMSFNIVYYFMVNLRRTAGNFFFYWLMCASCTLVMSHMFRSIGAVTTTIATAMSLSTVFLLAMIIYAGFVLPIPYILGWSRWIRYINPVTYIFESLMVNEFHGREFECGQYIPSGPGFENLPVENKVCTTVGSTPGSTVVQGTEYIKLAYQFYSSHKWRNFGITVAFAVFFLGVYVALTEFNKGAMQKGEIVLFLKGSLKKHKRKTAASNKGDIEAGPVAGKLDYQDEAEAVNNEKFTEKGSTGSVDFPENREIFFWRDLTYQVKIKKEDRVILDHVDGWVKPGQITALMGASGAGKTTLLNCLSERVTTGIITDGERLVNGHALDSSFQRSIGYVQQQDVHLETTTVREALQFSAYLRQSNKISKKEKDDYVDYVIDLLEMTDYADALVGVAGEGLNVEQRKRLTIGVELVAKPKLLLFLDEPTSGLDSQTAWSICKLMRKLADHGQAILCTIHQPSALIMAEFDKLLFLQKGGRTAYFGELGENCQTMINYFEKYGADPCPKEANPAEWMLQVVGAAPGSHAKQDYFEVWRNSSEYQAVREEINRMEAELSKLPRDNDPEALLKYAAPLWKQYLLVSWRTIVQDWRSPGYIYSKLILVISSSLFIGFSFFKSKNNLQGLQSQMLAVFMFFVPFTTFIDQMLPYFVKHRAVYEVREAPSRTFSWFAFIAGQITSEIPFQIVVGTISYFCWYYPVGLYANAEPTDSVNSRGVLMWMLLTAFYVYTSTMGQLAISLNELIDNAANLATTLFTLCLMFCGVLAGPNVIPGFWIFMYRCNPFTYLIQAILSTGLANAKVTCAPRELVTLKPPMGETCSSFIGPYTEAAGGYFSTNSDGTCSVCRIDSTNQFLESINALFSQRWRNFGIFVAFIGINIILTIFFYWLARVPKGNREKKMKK

[8] = system: Jurkat; assay: blockers of NF-kB activation in T cells – Jurkat, luciferase reporter, luminescence, B- and T-cell, dose response (AID 489004); format: functional, cell-based; details: Homo sapiens;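 note: NF-kB luciferase reporter Jurkat cells stimulated with PMA plus ionomycin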
[9] = target: T1, Aspartyl aminopeptidase (Plasmodium falciparum 3D7, UniProt Q8I2J3); assay: Counterscreen for inhibitors of M1 and M17 aminopeptidases: QFRET-based biochemical high throughput dose response assay for inhibitors of the Plasmodium falciparum M18 Aspartyl Aminopeptidase (PFM18AAP). [Related PubChem assays: 1619 (Screening assay (M17LAP inhibitors).), 1445 (Screening assay (M1AAP inhibitors).)]
T1 sequence (Q8I2J3 whole entry): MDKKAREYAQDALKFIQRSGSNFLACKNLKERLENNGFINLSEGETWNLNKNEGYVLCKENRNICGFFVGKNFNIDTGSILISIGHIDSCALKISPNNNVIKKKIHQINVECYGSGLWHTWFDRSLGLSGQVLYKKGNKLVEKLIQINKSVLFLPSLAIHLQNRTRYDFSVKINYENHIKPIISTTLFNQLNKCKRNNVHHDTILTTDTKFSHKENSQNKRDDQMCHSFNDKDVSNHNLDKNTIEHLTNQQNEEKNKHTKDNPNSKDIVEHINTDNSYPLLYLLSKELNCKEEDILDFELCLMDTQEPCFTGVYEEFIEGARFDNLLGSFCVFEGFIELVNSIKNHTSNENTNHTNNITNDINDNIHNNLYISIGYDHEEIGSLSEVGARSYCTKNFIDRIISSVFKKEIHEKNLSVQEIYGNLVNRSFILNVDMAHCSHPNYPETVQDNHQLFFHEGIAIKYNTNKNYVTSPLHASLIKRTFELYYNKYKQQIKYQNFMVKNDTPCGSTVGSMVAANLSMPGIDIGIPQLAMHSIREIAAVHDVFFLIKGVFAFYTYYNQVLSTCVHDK

[10] = target: T2, Probable nicotinate-nucleotide adenylyltransferase (Staphylococcus aureus (strain N315), UniProt P65502); format: functional, Staphylococcus aureus subsp. aureus N315; details: read-out: IC50_Mean;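 for IC50 Mean: confirmatory dose-response retesting of NadD inhibitor hits first found in an ultra-high-throughput screen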
T2 sequence (P65502 whole entry): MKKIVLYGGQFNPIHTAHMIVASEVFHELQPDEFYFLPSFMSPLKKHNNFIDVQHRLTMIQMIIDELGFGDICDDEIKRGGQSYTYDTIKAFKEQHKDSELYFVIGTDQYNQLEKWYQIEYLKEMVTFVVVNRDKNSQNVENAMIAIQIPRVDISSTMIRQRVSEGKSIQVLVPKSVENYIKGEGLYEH

[11] = target: T2, Probable nicotinate-nucleotide adenylyltransferase; format: functional, Staphylococcus aureus subsp. aureus N315
[12] = target: fMet-Leu-Phe receptor (Homo sapiens, UniProt P21462); assay: formyl peptide receptor binders – dose response (AID 519); format: functional
[13] = target: Genome polyprotein (dengue virus type 2, UniProt P29990); assay: flavivirus cap methylation enzyme inhibition – biochemical, confirmation dose response, primary screen (AID 588689); format: functional
Genome polyprotein, sequence (P29990 2492-3391 limits assumed): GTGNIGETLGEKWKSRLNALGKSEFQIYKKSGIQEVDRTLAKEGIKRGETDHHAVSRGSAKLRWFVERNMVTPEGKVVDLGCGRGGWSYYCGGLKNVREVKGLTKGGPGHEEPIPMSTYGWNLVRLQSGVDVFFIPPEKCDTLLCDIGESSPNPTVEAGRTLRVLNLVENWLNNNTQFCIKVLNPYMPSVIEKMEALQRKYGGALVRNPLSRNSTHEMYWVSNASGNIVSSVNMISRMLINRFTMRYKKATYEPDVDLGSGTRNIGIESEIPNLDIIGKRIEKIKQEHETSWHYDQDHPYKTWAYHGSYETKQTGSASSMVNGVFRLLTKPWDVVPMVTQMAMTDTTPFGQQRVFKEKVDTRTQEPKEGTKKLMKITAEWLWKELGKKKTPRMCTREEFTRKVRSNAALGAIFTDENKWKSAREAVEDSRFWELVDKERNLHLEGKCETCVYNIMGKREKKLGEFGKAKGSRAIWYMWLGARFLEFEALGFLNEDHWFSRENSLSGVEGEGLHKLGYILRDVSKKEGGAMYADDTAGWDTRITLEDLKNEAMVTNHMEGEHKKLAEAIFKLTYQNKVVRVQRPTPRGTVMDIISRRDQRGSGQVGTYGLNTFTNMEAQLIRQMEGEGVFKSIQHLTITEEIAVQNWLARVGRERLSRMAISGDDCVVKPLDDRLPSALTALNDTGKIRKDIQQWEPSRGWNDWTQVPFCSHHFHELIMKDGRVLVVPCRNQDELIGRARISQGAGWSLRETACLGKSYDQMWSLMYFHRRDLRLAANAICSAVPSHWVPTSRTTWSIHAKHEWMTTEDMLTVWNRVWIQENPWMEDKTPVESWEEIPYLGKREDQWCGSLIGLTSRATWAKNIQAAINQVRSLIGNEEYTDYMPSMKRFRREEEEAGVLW

[14] = target: T3, Leucine aminopeptidase (Plasmodium falciparum 3D7, UniProt Q8IL11); assay: P. falciparum M17LAP inhibitors, primary screen, biochemical, fluorogenic H-Leu-NHMec substrate, 1536-well (AID 1619); format: functional
T3 sequence (Q8IL11 whole entry): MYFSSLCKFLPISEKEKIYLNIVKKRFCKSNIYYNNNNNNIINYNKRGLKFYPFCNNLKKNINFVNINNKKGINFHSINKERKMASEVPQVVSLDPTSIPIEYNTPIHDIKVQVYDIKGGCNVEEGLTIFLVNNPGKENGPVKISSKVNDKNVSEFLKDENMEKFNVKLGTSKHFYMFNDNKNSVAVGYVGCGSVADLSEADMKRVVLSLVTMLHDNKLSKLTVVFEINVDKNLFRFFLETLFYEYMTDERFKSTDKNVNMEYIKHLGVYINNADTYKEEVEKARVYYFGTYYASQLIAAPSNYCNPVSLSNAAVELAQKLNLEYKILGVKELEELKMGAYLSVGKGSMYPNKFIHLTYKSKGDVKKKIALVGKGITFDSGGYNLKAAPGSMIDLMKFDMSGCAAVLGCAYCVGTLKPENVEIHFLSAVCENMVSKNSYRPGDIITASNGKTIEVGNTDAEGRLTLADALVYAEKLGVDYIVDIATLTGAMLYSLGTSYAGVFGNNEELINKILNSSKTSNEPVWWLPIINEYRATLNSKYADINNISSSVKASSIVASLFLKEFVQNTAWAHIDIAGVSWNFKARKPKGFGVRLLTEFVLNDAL

[15] = target: Procathepsin L (Homo sapiens, UniProt P07711); assay: CTSL1 protease inhibition – biochemical, QFRET, 1536-well, counter-screen for M1/M17 aminopeptidase inhibitor project, dose response (AID 2214)
Procathepsin L, sequence (P07711 whole entry): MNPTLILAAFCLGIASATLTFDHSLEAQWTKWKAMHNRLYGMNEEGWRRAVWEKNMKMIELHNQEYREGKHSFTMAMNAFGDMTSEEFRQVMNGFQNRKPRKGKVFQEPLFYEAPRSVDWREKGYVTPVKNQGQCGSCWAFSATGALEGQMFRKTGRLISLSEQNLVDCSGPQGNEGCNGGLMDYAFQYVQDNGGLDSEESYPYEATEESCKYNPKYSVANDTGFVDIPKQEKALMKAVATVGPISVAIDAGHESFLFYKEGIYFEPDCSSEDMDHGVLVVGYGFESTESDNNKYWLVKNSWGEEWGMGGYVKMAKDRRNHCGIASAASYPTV

[16] = target: Long-chain-fatty-acid--AMP ligase FadD28 (Mycobacterium tuberculosis, UniProt P9WQ59); assay: Fluorescence polarization aasay to screen for inhibitors that compete for the binding of FadD28 to a bisubstrate Measured in Biochemical System Using Plate Reader - 2147-01_Inhibitor_Dose_CherryPick_Activity.; format: functional, Mycobacterium tuberculosis H37Rv
Long-chain-fatty-acid--AMP ligase FadD28, sequence (P9WQ59 whole entry): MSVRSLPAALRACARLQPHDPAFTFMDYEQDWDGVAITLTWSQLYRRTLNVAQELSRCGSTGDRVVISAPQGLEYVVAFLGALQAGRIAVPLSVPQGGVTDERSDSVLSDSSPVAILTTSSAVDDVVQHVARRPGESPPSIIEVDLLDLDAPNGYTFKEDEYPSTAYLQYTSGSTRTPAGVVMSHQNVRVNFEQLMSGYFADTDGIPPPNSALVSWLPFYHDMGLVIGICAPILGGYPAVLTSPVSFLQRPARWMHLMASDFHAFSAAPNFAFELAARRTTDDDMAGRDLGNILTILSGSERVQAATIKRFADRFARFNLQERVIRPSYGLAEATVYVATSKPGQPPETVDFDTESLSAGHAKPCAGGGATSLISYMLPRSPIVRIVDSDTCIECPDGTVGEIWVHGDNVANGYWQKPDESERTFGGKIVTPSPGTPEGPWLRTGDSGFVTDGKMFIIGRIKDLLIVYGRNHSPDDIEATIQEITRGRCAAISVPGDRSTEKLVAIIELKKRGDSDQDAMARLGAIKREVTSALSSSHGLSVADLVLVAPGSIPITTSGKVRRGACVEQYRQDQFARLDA

[17] = target: 26S proteasome non-ATPase regulatory subunit 14 (Homo sapiens, UniProt O00487); assay: inhibition of proteasome subunit RPN11 – biochemical, fluorescence polarization, uHTS hits, confirmation (AID 602368); format: functional
[18] = target: T4, Small ubiquitin-related modifier 1 (Homo sapiens, UniProt P63165); assay: SUMO1 protein-protein binding blockers, potency – biochemical, FRET, dose response (AID 624383); format: functional; details: read-out: IC50_Mean
T4 sequence (P63165 whole entry): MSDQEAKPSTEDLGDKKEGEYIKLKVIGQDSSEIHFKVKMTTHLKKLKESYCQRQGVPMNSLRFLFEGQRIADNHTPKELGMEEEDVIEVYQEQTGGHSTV

[19] = target: 72 kDa type IV collagenase (Homo sapiens, UniProt P08253); assay: Dose Response validation of uHTS RPN11 inhibitor hits using a MMP-2 Fluorescence assay.; format: functional
72 kDa type IV collagenase, sequence (P08253 whole entry): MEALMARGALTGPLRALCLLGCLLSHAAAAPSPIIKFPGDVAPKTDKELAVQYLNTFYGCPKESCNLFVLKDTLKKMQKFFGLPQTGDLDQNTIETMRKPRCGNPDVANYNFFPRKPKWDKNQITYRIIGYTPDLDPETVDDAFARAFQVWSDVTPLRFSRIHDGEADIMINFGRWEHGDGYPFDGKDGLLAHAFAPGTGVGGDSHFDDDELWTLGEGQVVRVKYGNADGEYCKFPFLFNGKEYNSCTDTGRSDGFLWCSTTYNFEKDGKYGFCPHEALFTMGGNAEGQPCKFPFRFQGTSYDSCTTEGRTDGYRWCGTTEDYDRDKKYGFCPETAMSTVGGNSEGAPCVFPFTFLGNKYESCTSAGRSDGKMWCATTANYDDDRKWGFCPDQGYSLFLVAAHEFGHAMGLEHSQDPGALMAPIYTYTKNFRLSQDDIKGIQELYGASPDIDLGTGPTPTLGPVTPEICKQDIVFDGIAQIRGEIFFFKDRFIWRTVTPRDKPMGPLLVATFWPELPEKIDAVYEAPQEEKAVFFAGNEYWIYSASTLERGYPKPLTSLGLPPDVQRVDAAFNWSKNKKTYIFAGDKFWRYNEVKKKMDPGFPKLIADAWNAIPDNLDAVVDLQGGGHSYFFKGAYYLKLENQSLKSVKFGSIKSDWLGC

[20] = target: T5, Rac GTPase-activating protein 1 (Homo sapiens, UniProt Q9H0H5); assay: blockers of MgcRacGAP-driven Rac1 GTP hydrolysis – biochemical, ADP Hunter fluorescence, primary and confirmatory, confirmation (AID 624330); format: functional
T5 sequence (Q9H0H5 whole entry): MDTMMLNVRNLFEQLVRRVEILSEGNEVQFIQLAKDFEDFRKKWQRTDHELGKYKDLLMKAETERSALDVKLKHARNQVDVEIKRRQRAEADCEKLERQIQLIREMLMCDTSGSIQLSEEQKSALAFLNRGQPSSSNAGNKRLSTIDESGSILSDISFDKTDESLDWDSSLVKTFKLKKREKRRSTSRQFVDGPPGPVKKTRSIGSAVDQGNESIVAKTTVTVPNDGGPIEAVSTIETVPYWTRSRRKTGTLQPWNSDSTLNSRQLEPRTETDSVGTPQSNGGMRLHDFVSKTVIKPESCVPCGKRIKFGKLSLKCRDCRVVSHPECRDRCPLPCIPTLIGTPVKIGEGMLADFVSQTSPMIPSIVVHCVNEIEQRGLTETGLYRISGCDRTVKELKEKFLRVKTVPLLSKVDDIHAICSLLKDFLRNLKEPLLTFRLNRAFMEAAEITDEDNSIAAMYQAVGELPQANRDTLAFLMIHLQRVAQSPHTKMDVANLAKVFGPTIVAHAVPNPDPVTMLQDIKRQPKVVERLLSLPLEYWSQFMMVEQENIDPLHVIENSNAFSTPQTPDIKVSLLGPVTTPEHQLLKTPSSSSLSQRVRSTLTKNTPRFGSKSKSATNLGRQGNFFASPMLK

[21] = target: T4, Small ubiquitin-related modifier 1; assay: SUMO1 protein interaction blockers, potency – biochemical, fluorescence polarization, uHTS hits, dose response (AID 624382); format: functional; details: read-out: IC50_Mean
[22] = target: Prothrombin (Bos taurus, UniProt P00735); assay: thrombin protease inhibitors – biochemical, fluorescence polarization, uHTS hits, dose response (AID 602369); format: functional
[23] = bead-based luminescence quenchers, dual-tagged ARNT – biochemical, AlphaScreen, cherry-pick, artefact control for ARNT-TACC3 interaction inhibitor project, dose response (AID 651705); format: functional;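 note: AlphaScreen bead proximity signal that flags compounds interfering with the detection technology; potency reflects signal decrease which marks the compound as an assay artifact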
[24] = target: T6, Sentrin-specific protease 1 (Homo sapiens, UniProt Q9P0U3); assay: SENP1 catalytic domain blockers, concentration series – biochemical, kinetic FRET, dose response (AID 651697); format: functional; details: read-out: IC50_Mean
T6 sequence (Q9P0U3 whole entry, the tested form may be a part): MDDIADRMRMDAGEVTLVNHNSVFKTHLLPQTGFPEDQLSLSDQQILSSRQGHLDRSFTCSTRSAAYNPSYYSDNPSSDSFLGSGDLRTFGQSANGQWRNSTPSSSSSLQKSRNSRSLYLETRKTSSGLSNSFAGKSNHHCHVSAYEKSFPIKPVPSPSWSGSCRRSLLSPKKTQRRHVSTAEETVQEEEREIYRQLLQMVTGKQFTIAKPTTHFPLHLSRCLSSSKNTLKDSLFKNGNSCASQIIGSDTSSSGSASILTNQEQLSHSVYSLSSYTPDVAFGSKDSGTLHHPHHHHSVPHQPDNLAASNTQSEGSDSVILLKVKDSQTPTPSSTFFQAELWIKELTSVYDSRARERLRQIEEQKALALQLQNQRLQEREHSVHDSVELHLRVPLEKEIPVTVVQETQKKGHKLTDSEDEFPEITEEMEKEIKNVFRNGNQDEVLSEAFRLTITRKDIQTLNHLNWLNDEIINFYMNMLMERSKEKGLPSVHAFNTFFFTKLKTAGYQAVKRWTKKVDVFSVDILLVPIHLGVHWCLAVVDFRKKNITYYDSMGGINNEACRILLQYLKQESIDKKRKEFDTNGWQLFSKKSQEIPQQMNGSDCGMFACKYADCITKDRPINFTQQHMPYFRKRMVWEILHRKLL

[25] = target: T6, Sentrin-specific protease 1; assay: Dose response confirmation of small molecule inhibitors of the catalytic domain of the SUMO protease, SENP1 in a FRET assay.; format: functional; details: read-out: IC50_Mean

NC1=NC[C@H](Cc2ccc(O)cc2)N1CCCCC1CCCCC1
EC50 [1]: 1.4 µM (active)
IC50 [2]: 4.52 µM (active)
IC50 [3]: 3.72 µM (active)
EC50 [4]: > 60 µM (not active)
AC50 [5]: 2.43 µM (active)
IC50 [6]: 67.6 µM (inactive)
EC50 [7]: 15.9 µM (active)
IC50 [8]: 8.18 µM (active)

CCOC(=O)c1c(-c2ccc(-c3ccccc3)cc2)csc1NC(=O)C1C2CCC(O2)C1C(=O)O (stereo not given)
IC50 [9]: 38.5 µM (not active)
IC50 [10]: 15.3 µM (active)
IC50 [11]: 5.15 µM (active)
Ki [12]: > 66.7 µM (inactive)
IC50 [13]: 29.6 µM (active)
IC50 [14]: 6.09 µM (active)
IC50 [15]: > 59.6 µM (not active)

CCc1ccc(NC(=S)N(Cc2ccc(Cl)cc2)Cc2ccc(C(=O)O)cc2)cc1
AC50 [16]: > 100 µM (inactive)

CCCc1c(C)nc2ccc(C(=O)O)cc2c1S
IC50 [17]: 22.8 µM (active)
IC50 [18]: 18 µM (active)
IC50 [19]: > 100 µM (inactive)
IC50 [20]: 72.6 µM (active)
IC50 [21]: > 66.6 µM (inactive)
IC50 [22]: 72.7 µM (active)

COCCn1c(-c2ccccc2)cnc1N
AC50 [23]: 115 µM (active)

CC(=O)Oc1ccc(Cl)cc1/C=C/c1ccc2ccccc2n1
IC50 [24]: 3.28 µM (active)
IC50 [25]: 2.22 µM (active)
